Source: patent publication US20230263822A1, “MODULATION OF FACTOR 11 EXPRESSION” (Ionis Pharmaceuticals, Inc., priority 2008, published 2023)

Experiments:
[1] = Tolerability in CD1 mice: organ weight (Example 33); format: in vivo; conditions: 50 mg/kg s.c. twice a week, vs PBS control, normalized to body weight
Procedure: Three days after the last dose was administered to all groups, the mice were sacrificed.

[2] = test system: human Factor 11 mRNA; assay: Dose-dependent inhibition of human Factor 11 in cyano primary hepatocytes, electroporation (Example 6); format: cell-based; conditions: ~16 hours
Procedure: Cells were plated at a density of 35,000 cells per well and transfected via electroporation with 0.74 nM, 2.2 nM, 6.7 nM, 20 nM, 60 nM, and 180 nM concentrations of antisense oligonucleotide, as specified in Table 13. After a treatment period of approximately 16 hours, RNA was isolated from the cells and human Factor 11 mRNA levels were measured by quantitative real-time PCR. Human Factor 11 primer probe set RTS 2966 was used to measure mRNA levels. Factor 11 mRNA levels were adjusted according to total RNA content, as measured by RIBOGREEN. Results are presented as percent inhibition of human Factor 11, relative to untreated control cells.

Row | Substance | Percent change in kidney weight ([1]; 2 weeks) | Percent change in liver weight ([1]; 2 weeks) | Percent change in spleen weight ([1]; 2 weeks) | Percent change in kidney weight ([1]; 4 weeks) | Percent change in liver weight ([1]; 4 weeks) | Percent change in spleen weight ([1]; 4 weeks) | Percent change in kidney weight ([1]; 6 weeks) | Percent change in liver weight ([1]; 6 weeks) | Percent change in spleen weight ([1]; 6 weeks) | percent inhibition of human Factor 11 mRNA relative to untreated control cells ([2]; 0.74 nM) | percent inhibition of human Factor 11 mRNA relative to untreated control cells ([2]; 2.2 nM) | percent inhibition of human Factor 11 mRNA relative to untreated control cells ([2]; 6.7 nM) | percent inhibition of human Factor 11 mRNA relative to untreated control cells ([2]; 20 nM) | percent inhibition of human Factor 11 mRNA relative to untreated control cells ([2]; 60 nM) | percent inhibition of human Factor 11 mRNA relative to untreated control cells ([2]; 180 nM)
1 | 416826 (antisense ATGCCCTTCATGTCTAGGTC; 5-10-5 gapmer, further chemistry not given here) [compound 416826] | −13% | +10% | −12% | −7% | +32% | −5% | −22% | +33% | +22% | 13% | 24% | 34% | 67% | 69% | 71%
2 | 416925 (antisense GGTGCACAGTTTCTGGCAGG; 3-14-3 gapmer chemistry, further chemistry not given here) [compound 416925] | −4% | +14% | −7% | −14% | +14% | +33% | −2% | +33% | +78% | 0% | 9% | 1% | 48% | 55% | 76%
3 | 416864 (antisense GGCAGCGGACGGCATTGGTG; 5-10-5 gapmer, further chemistry not given here) [compound 416864] | −4% | −2% | −10% | −9% | +2% | −2% | −15% | −5% | −6% | 0% | 1% | 15% | 23% | 47% | 64%
4 | 416825 (antisense GCCCTTCATGTCTAGGTCCA; 5-10-5 gapmer, further chemistry not given here) [compound 416825] | −12% | +5% | −12% | −12% | +22% | +19% | −11% | +13% | +21% | 5% | 22% | 51% | 61% | 77% | 84%
5 | 417003 (antisense TGGTGCACAGTTTCTGGCAG; 2-13-5 gapmer chemistry, further chemistry not given here) [compound 417003] | −9% | +8% | +12% | −2% | +42% | +101% | −1% | +32% | +98% | 12% | 18% | 19% | 39% | 58% | 74%
6 | 416858 (antisense ACGGCATTGGTGCACAGTTT; 5-10-5 gapmer, further chemistry not given here) [compound 416858] | +1% | +7% | −2% | −18% | +1% | +8% | −10% | +10% | +28% | 2% | 13% | 22% | 44% | 63% | 68%
7 | 416999 (antisense GCACAGTTTCTGGCAGGCCT; 2-13-5 gapmer chemistry, further chemistry not given here) [compound 416999] | −9% | +13% | +7% | −6% | +30% | +22% | −7% | +47% | +38% | 3% | 40% | 36% | 62% | 67% | 82%
8 | 416850 (antisense TGCACAGTTTCTGGCAGGCC; 5-10-5 gapmer, further chemistry not given here) [compound 416850] | −0% | +5% | −4% | −12% | +3% | +6% | −11% | +6% | +48% | 2% | 20% | 24% | 65% | 69% | 67%
9 | 416838 (antisense GCAACCGGGATGATGAGTGC; 5-10-5 gapmer, further chemistry not given here) [compound 416838] | −2% | +8% | +21% | −12% | −6% | −8% | −8% | 0% | +9% | 0% | 0% | 21% | 34% | 48% | 62%
10 | 417002 (antisense GGTGCACAGTTTCTGGCAGG; 2-13-5 gapmer chemistry, further chemistry not given here) [compound 417002] | +3% | +14% | +29% | −5% | +8% | +26% | −2% | +35% | +108% | 32% | 16% | 28% | 38% | 55% | 71%
11 | 416892 (antisense GCCCTTCATGTCTAGGTCCA; 3-14-3 chimeric gapmer, further chemistry not given here) [compound 416892] | +2% | +35% | +24% | −3% | +88% | +30% | +19% | +95% | +65% | 20% | 20% | 43% | 62% | 88% | 92%
